ChEMBL document CHEMBL1147017, “Synthesis and antiproliferative activity of two new tiazofurin analogues with 2'-amido functionalities” (Bioorg Med Chem Lett, 2006)

Tests used:
Format in all cases: functional, cell-based
MCF7 = experiment: Antiproliferative activity against human MCF7 cell line
HeLa = experiment: Antiproliferative activity against human HeLa cell line
HL-60 = experiment: Antiproliferative activity against human HL60 cell line
K562 = experiment: Antiproliferative activity against human K562 cell line
HT-29 = experiment: Antiproliferative activity against human HT29 cell line
MRC5 = experiment: Antiproliferative activity against human MRC5 cell line

IC50 (MCF7) [µM] | IC50 (HeLa) [µM] | IC50 (HL-60) [µM] | IC50 (K562) [µM] | IC50 (HT-29) [µM] | SMILES | IC50 (MRC5) [µM]
7.98 |  |  |  |  | NC(=O)c1csc([C@@H]2O[C@H](CO)[C@@H](O)[C@H]2O)n1 [TIAZOFURIN] | 
0.014 | 8.75 | > 100 | > 100 | > 100 | CCCCCC(=O)N[C@@H]1[C@H](O)[C@@H](CO)O[C@H]1c1nc(C(N)=O)cs1 | > 100
> 100 | 3.22 | 4.82 | 35.6 | 0.011 | CCCCCCCCCCCC(=O)N[C@@H]1[C@H](O)[C@@H](CO)O[C@H]1c1nc(C(N)=O)cs1 | > 100
